In US20260077191A1, “COMBINATION THERAPY FOR THE TREATMENT OF DEPRESSION” (Flow Neuroscience, Inc., priority 2022, published 2026):

Key:
[1] = system: serotonin reuptake and norepinephrine reuptake; details: cited from earlier work; for selectivity for serotonin reuptake inhibition than norepinephrine reuptake inhibition: higher selectivity for serotonin reuptake
[2] = system: Major depressive disorder (MDD); test: weekly MADRS-s self-assessment of MDD subjects on a pharmacologic antidepressant agent combined with tDCS sessions (Example 2); format: in vivo, human; details: each agent combined with tDCS; Week 6; change in MADRS-s, FIG. 7
Excerpt: In this example, a subject completed a MADRS-s questionnaire at baseline (defined as a time preceding initiation of neurostimulation) to determine a starting measurement to be used in an assessment of treatment efficacy. Ideally, baseline measures were made close to the period of time in which the first neurostimulation session began. The subject completed the same MADRS-s questionnaire weekly during a period of ongoing treatment comprising administering of a prescribed pharmacologic antidepressant agent and delivery to the subject of plurality tDCS sessions. […]
Subjects were provided with a tDCS neurostimulation device, instructions of use, and an program capable of being run on a handheld electronic device which provided instructions, recorded responses to various questionnaires completed by the subject, and recorded information regarding the tDCS stimulation sessions completed by the user. Amongst the tDCS stimulation session information recorded was the date of each session completed, the time of day of each completed session, the duration of each completed session, the intensity of electrical stimulation in each session, the latency from the most recently completed session to the previous session.
Subjects completed a MADSR-s assessment at baseline prior to their first tDCS session. […] If the dosage had changed, the subject recorded the extent of the change. […]

Row | SMILES | potency for norepinephrine reuptake inhibition than serotonin reuptake inhibition [1] [fold] | effectiveness in improving symptoms of depression compared to fluoxetine [2] | selectivity for serotonin reuptake inhibition than norepinephrine reuptake inhibition [1] [fold]
1 | CCN(CC)C(=O)[C@@]1(c2ccccc2)C[C@H]1CN [Levomilnacipran] | 2 |  | 
2 | CCN(CC)C(=O)C1(c2ccccc2)CC1CN (stereo not drawn) [Milnacipran] | 3 |  | 
3 | CN[C@H]1CC[C@@H](c2ccc(Cl)c(Cl)c2)c2ccccc21 [Sertraline] |  | significantly better | 
4 | COc1ccc(C(CN(C)C)C2(O)CCCCC2)cc1 (stereo not drawn) [Venlafaxine] |  | approaching significance | 
5 | CN(C)CC(c1ccc(O)cc1)C1(O)CCCCC1 (stereo not drawn) [desvenlafaxine] |  |  | 10
6 | CNCC[C@H](Oc1cccc2ccccc12)c1cccs1 [duloxetine] |  |  | 10
